Source: patent EP0598515A1, “Method for herbicidal activity-enhancing, activity-enhanced herbicidal composition and activity-enhancing composition” (ISHIHARA SANGYO KAISHA LTD., priority 1992, dated 1994)
Read-outs that look alike come from different tables or passages of the source.

Legend:
Assay type in all cases: in vivo
[1] = tested on: common cocklebur (Xanthium strumarium L.); test: Test Example 9: pot test, Example 8 suspension concentrate with Frigate; details: Xanthium strumarium, 528 h, Frigate: No addition, Compound A 60 g/ha, 22 days after treatment, duplicate, read-out: Growth Inhibition (%) Common Cocklebur
Protocol: (§1) Velvetleaf (Abutilon theophrasti MEDIC.) and common cocklebur (Xanthium strumarium L.) seeds were sown in 1/1,000,000-hectare pots filled with upland soil and arranged in a duplicate system. When the velvetleaf plants and common cocklebur plants grew to a 2.1- and 2.3-leaf stage, respectively, the oil-based suspension concentrate obtained in Example 8 was diluted with 500 liters/hectare of water containing a predetermined amount of Frigate and was applied foliarly to the plants with a small spray gun.
(§2) Twenty two days after treatment, the growth inhibition of plants was evaluated with visual observation in the same manner as in Test Example 1 and are shown in Table 9.

[2] = tested on: Velvetleaf (Abutilon theophrasti MEDIC.); test: as above; details: 22 days after treatment; for inhibition at 20 g/ha: Compound A 20 g/ha; for inhibition at 40 g/ha: Compound A 40 g/ha
Protocol: as §1, §2

[3] = tested on: Crabgrass (Digitaria sanginalis L.); test: Test Example 11: pot test, Example 8 suspension concentrate with kinds of EFAS; details: EFAS: No addition, 23 days after treatment, duplicate
Protocol: Crabgrass (Digitaria sanginalis L.) seeds were sown in 1/1,000,000-hectare pots filled with upland soil and arranged in a duplicate system. When the crabgrass plants grew to a 4-leaf stage, the oil-based suspension concentrate obtained in Example 8 was diluted with 200 liters/hectare of water containing a predetermined amount of an ethoxylated fatty amine type surfactant (EFAS) and was applied foliarly to the plants with a small spray gun.
Twenty three days after treatment, the growth inhibition of plants was evaluated with visual observation in the same manner as in Test Example 1 and are shown in Table 11.

[4] = tested on: green foxtail (Setaria viridis L.); test: Test Example 12: field plot test, growth inhibition; details: 648 h, Example 8 suspension concentrate, 27 days after treatment, field plots, read-out: Growth Inhibition (%) SV
From the text: (§3) In field plots of 3 m² (1 m × 3 m) unit arranged in a duplicate system, seeds of corn, crabgrass (Digitaria sanguinalis L.), green foxtail (Setaria viridis L.), common lambsquarters (Chenopodium album L.), slender amaranth (Amaranthus virdis L.) and velvetleaf (Abutilon theophrasti MEDIC.) were sown and grown. Also, barnyardgrass (Echinochloa crus-galli L.), henbit (Lamiun amplexlcaule L.), pale smartweed (Polygonum lapathifolium L.) and threeseeded copperleaf (Acalypha australis L.) were allowed to grow spontaneously. When the plants grew to certain stages (corn: 6.1 to 6.5-leaf stage, crabgrass: 2.0 to 4.5-leaf stage, green foxtail: 3.0 to 4.5-leaf stage, common lambsquarters: 4.0 to 8.0-leaf stage, slender amaranth: 1.0 to 4.0-leaf stage, velvetleaf: 2.0 to 3.5-leaf stage, barnyardgrass: 3.0 to 4.5-leaf stage, henbit: 2.0 to 5.0 cm, pale smartweed: 3.0 to 5.0-leaf stage and threeseeded copperleaf: 2.0 to 4.0-leaf stage), the oil-based suspension concentrate obtained in Example 8 was diluted with 200 liters/hectare of water containing a predetermined amount of Frigate and was applied foliarly to the plants with a small spray gun.
(§4) Twenty seven days after treatment, the growth inhibition of plants except for corn plants was evaluated with visual observation in the same manner as in Test Example 1 and are shown in Table 12.

[5] = tested on: threeseeded copperleaf (Acalypha australis L.); test: as above; details: Example 8 suspension concentrate, 27 days after treatment, field plots; for inhibition at 40 g/ha: Compound A 40 g/ha
From the text: as §3, §4

[6] = tested on: barnyardgrass (Echinochloa crus-galli L.); test: as above; details: 648 h, Example 8 suspension concentrate, 27 days after treatment, field plots, read-out: Growth Inhibition (%) EC
From the text: as §3, §4

[7] = Abutilon theophrasti, 528 h, Frigate 0.125 % by volume, duplicate, read-out: Growth Inhibition (%) Velvetleaf
[8] = Abutilon theophrasti, 528 h, Frigate 0.25 % by volume, duplicate, read-out: Growth Inhibition (%) Velvetleaf
[9] = Abutilon theophrasti, 528 h, Frigate: No addition, duplicate, read-out: Growth Inhibition (%) Velvetleaf
[10] = Frigate 0.2 % by volume, Compound A 20 g/ha
[11] = Frigate 0.2 % by volume, Compound A 30 g/ha
[12] = Frigate 0.2 % by volume, Compound A 40 g/ha
[13] = Frigate: No addition, Compound A 60 g/ha

With `COc1cc(OC)nc(NC(=O)NS(=O)(=O)c2ncccc2C(=O)N(C)C)n1` [Compound A, N-[(4,6-dimethoxypyrimidin-2-yl)aminocarbonyl]-3-dimethylaminocarbonyl-2-pyridinesulfonamide] the inhibition at 60 g/ha [1] was 98%, the inhibition at 10 g/ha ([2]; Abutilon theophrasti, 528 h, Frigate 0.125 % by volume, Compound A 10 g/ha, duplicate, read-out: Growth Inhibition (%) Velvetleaf) was 30% and the inhibition at 20 g/ha [2, 7] was 65%. The inhibition at 40 g/ha [2, 7] was 85%, the inhibition at 10 g/ha ([2]; Abutilon theophrasti, 528 h, Frigate 0.25 % by volume, Compound A 10 g/ha, duplicate, read-out: Growth Inhibition (%) Velvetleaf) was 40% and the inhibition at 20 g/ha [2, 8] was 80%. It also gave an inhibition at 40 g/ha [2, 8] of 85%, an inhibition at 10 g/ha ([2]; Abutilon theophrasti, 528 h, Frigate 0.5 % by volume, Compound A 10 g/ha, duplicate, read-out: Growth Inhibition (%) Velvetleaf) of 60% and an inhibition at 20 g/ha ([2]; Abutilon theophrasti, 528 h, Frigate 0.5 % by volume, duplicate, read-out: Growth Inhibition (%) Velvetleaf) of 80%. For the same compound, the inhibition at 40 g/ha ([2]; Abutilon theophrasti, 528 h, Frigate 0.5 % by volume, read-out: Growth Inhibition (%) Velvetleaf) was 90%, the inhibition at 20 g/ha [2, 9] was 20% and the inhibition at 40 g/ha [2, 9] was 65%. For the same compound, the inhibition at 50 g/ha ([2]; Abutilon theophrasti, 528 h, Frigate: No addition, Compound A 50 g/ha, duplicate, read-out: Growth Inhibition (%) Velvetleaf) was 75%, the inhibition at 60 g/ha ([2]; Abutilon theophrasti, 528 h, Frigate: No addition, Compound A 60 g/ha, duplicate, read-out: Growth Inhibition (%) Velvetleaf) was 80% and the “Growth Inhibition (%) Velvetleaf” value ([2]; Frigate 0.25 % by volume, Compound A 10 g/ha, duplicate) was 50%. The inhibition at 10 g/ha ([3]; Digitaria, 552 h, Compound A 10 g/ha, read-out: Growth Inhibition (%) of Crabgrass) was 70%, the inhibition at 20 g/ha ([3]; Digitaria, 552 h, Compound A 20 g/ha, read-out: Growth Inhibition (%) of Crabgrass) was 98% and the inhibition at 40 g/ha ([3]; Digitaria, 552 h, Compound A 40 g/ha, read-out: Growth Inhibition (%) of Crabgrass) was 98%. The “Growth Inhibition (%) of Crabgrass” value ([3]; Compound A 10 g/ha) was 55%, the “Growth Inhibition (%) of Crabgrass” value ([3]; Compound A 20 g/ha) was 90% and the inhibition at 20 g/ha [4, 10] was 100%. The inhibition at 30 g/ha [4, 11] was 100%, the inhibition at 40 g/ha [4, 12] was 100% and the inhibition at 60 g/ha [4, 13] was 100%. The inhibition at 20 g/ha ([5]; Acalypha australis, 648 h, Frigate 0.2 % by volume, Compound A 20 g/ha, read-out: Growth Inhibition (%) AA) was 90%, the inhibition at 30 g/ha ([5]; Acalypha australis, 648 h, Frigate 0.2 % by volume, Compound A 30 g/ha, read-out: Growth Inhibition (%) AA) was 90% and the inhibition at 40 g/ha ([5]; Acalypha australis, 648 h, Frigate 0.2 % by volume, read-out: Growth Inhibition (%) AA) was 95%. It also gave an inhibition at 60 g/ha ([5]; Acalypha australis, 648 h, Frigate 0.2 % by volume, Compound A 60 g/ha, read-out: Growth Inhibition (%) AA) of 90%, an inhibition at 40 g/ha ([5]; Acalypha australis, 648 h, Frigate: No addition, read-out: Growth Inhibition (%) AA) of 90% and an inhibition at 60 g/ha ([5]; Acalypha australis, 648 h, Frigate: No addition, Compound A 60 g/ha, read-out: Growth Inhibition (%) AA) of 90%. For the same compound, the “Growth Inhibition (%) AA” value ([5]; Frigate 0.2 % by volume, Compound A 60 g/ha) was 98%, the inhibition at 20 g/ha [6, 10] was 100% and the inhibition at 30 g/ha [6, 11] was 100%. The inhibition at 40 g/ha [6, 12] was 100% and the inhibition at 60 g/ha [6, 13] was 100%.
